In patent publication US20260285834A1, “SUBSTITUTED PYRIDINE DERIVATIVES AS SARM1 INHIBITORS” (Nura Bio, Inc., priority 2022, published 2026):
Where a name gives a salt, the structure may show the parent alone. Read-outs that look alike come from different tables or passages of the source.

Molecular target: T1, human SARM1(50-724) (Homo sapiens, UniProt Q6SZW1)
T1 construct: 40 nM human SARM1(50-724)
T1 sequence (Q6SZW1 50-724): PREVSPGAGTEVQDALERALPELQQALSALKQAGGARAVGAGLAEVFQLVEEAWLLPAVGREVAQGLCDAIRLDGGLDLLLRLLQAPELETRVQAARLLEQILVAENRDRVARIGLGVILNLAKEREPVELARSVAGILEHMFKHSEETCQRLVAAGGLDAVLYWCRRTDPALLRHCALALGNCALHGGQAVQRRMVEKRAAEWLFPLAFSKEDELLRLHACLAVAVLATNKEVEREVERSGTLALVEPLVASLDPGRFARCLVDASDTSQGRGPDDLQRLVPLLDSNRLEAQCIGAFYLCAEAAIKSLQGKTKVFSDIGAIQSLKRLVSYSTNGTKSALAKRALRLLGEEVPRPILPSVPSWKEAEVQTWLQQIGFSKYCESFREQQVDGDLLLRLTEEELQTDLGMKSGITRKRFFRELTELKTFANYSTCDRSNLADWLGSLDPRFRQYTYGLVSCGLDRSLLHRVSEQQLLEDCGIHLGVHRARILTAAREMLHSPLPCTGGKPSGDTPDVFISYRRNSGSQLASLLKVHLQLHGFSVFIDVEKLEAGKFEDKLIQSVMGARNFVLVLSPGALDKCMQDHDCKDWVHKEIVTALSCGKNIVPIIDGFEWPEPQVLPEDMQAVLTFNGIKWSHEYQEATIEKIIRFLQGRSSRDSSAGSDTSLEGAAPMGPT
Test: SARM1 biological assay: HPLC measurement of NAD and NAM peak areas
Assay type: biochemical
Protocol: Each reaction was run at a volume of 20 μL containing 50 μM compound (dissolved in DMSO; final concentration of DMSO is 1% v/v), 40 nM human SARM1(50-724), 0.3 mM NMN, 20 μM NAD, 1 mM TCEP, 25 mM HEPES pH 7.4, 10 mM KCl and 10 mM MgCl2. The reaction was incubated at room temperature for 60 minutes and quenched with 20 μL of 0.4% formic acid. The samples were run on Agilent HPLC 1260 Infinity II with Synergi 2.5 μM Fusion-RP 100 Å (100×3.0 mm) LC column from Phenomenex. Total run time for each sample was 4 minutes. The run was isocratic with 1.5% methanol in 40 mM ammonium acetate pH 6.0. Samples were run at a flow rate of 0.8 mL/min at 55° C. Peak areas of NAD and NAM were determined using OpenLAB CDS (Chem Station edition) software. For dose-response, the compound was diluted serially 1:3 in DMSO and added to the reaction starting at a final compound concentration of 100 μM in 1% DMSO.

[1] = 40 nM human SARM1(50-724), 0.3 mM NMN, 20 μM NAD, 60 min at room temperature, dose-response 1:3 serial dilution from 100 μM, read-out: Average IC50

Row | SMILES | IC50 | other results
1 | FC(F)(F)[C@H]1C[C@@H](c2nc(Cc3ccncc3)c[nH]2)C1 (single isomer, unassigned) [Example 31A, (cis)-4-((2-(3-(Trifluoromethyl)cyclobutyl)-1H-imidazol-4-yl)methyl)pyridine] | 1000 to 10000 nM | 
2 | FC1(F)CC[C@@H](c2nc(Cc3ccncc3)c[nH]2)C1 (single isomer, unassigned) [Example 11B] | 1000 to 10000 nM | 
3 | F[C@H]1C[C@@H](c2nc(Cc3ccncc3)c[nH]2)C1 [Example 29, (cis)-4-((2-(3-Fluorocyclobutyl)-1H-imidazol-4-yl)methyl)pyridine] | < 1000 nM | 
4 | FC1(Cl)CC1c1nc(Cc2ccncc2)c[nH]1 (stereo not shown) [Example 39, 4-((2-(2-Chloro-2-fluorocyclopropyl)-1H-imidazol-4-yl)methyl)pyridine] | < 1000 nM | 
5 | FC1(F)C[C@@H]1Cc1nc(Cc2ccncc2)c[nH]1 (single isomer, unassigned) [Example 21A] | < 1000 nM | 
6 | F[C@]1(Cl)C[C@H]1c1nc(Cc2ccncc2)c[nH]1 (single isomer, unassigned) [Example 39D] | < 1000 nM | 
7 | FC1(F)CC(Cc2nc(Cc3ccncc3)c[nH]2)C1 [Example 24, 4-((2-((3,3-Difluorocyclobutyl)methyl)-1H-imidazol-4-yl)methyl)pyridine] | 1000 to 10000 nM | 
8 | FC1(F)CC1c1nc(Cc2ccncc2)c[nH]1 (single isomer, unassigned) [Example 5B] |  | IC50 (read-out: Average IC50, 40 nM human SARM1(50-724), 0.3 mM NMN, 20 μM NAD, 60 min at room temperature, dose-response 1:3 serial dilution from 100 μM): < 1000 nM
9 | FC(F)(F)C1(Cc2nc(Cc3ccncc3)c[nH]2)CC1 [Example 25] | < 1000 nM | 
10 | Fc1cnccc1Cc1coc(C2CCC(F)(F)CC2)n1 [Example 17B, 2-(4,4-Difluorocyclohexyl)-4-((3-fluoropyridin-4-yl)methyl)oxazole] | 10000 to 100000 nM | 
11 | FC1(F)CCN(c2nc(Cc3ccncc3)c[nH]2)CC1 [Example 1] | 1000 to 10000 nM | 
12 | N#C[C@H]1C[C@@H](c2nc(Cc3ccncc3)c[nH]2)C1 [Example 35A] |  | IC50 [1]: 1000 to 10000 nM
13 | C[C@]1(c2nc(Cc3ccncc3)c[nH]2)CC1(F)F (single isomer, unassigned) [Example 10A] | < 1000 nM | 
14 | ClC1(Cl)CC1c1nc(Cc2ccncc2)c[nH]1 (stereo not shown) [Example 6, 4-((2-(2,2-Dichlorocyclopropyl)-1H-imidazol-4-yl)methyl)pyridine] | < 1000 nM | 
15 | FC(F)(F)C1CC1c1nc(Cc2ccncc2)c[nH]1 (stereo not shown) [Example 26, 4-((2-(2-(Trifluoromethyl)cyclopropyl)-1H-imidazol-4-yl)methyl)pyridine] | 1000 to 10000 nM | 
16 | CC1(F)CC(c2nc(Cc3ccncc3)c[nH]2)C1 (stereo not shown) [Example 9, 4-((2-(3-Fluoro-3-methylcyclobutyl)-1H-imidazol-4-yl)methyl)pyridine] | < 1000 nM | 
17 | N#CC1CC(c2nc(Cc3ccncc3)c[nH]2)C1 [Example 35B, (trans)-(1S, 3S)-3-(4-Pyridin-4ylmethyl)-1H-imidazol-2-yl)cyclobutane-1-carbonitrile] | < 1000 nM | 
18 | F[C@@]1(Cl)C[C@H]1c1nc(Cc2ccncc2)c[nH]1 (single isomer, unassigned) [Example 39C] | < 1000 nM | 
19 | F[C@]1(Cl)C[C@@H]1c1nc(Cc2ccncc2)c[nH]1 (single isomer, unassigned) [Example 39B] | < 1000 nM | 
20 | FC1(F)CC1Cc1nc(Cc2ccncc2)co1 (stereo not shown) [Example 20B, 2-((2,2-Difluorocyclopropyl)methyl)-4-(pyridine-4ylmethyl)oxazole] | 10000 to 100000 nM | 
21 | FC1(F)CC[C@H](c2nc(Cc3ccncc3)c[nH]2)C1 (single isomer, unassigned) [Example 11A] | < 1000 nM | 
22 | ClC1CC(c2nc(Cc3ccncc3)c[nH]2)C1 (stereo not shown) [Example 34, 4-((2-(3-Chlorocyclobutyl)-1H-imidazol-4-yl)methyl)pyridine] | < 1000 nM | 
23 | C[C@H](c1ccncc1)c1c[nH]c(C(=O)C(F)(F)F)n1 (single isomer, unassigned) [Example 23A, hydrochloride] | < 1000 nM | 

Row | SMILES | IC50 | other results
24 | C[C@@H](c1ccncc1)c1c[nH]c(C(=O)C(F)(F)F)n1 (single isomer, unassigned) [Example 23B, hydrochloride] | 1000 to 10000 nM | 
25 | ClC1(Cl)C[C@H]1c1nc(Cc2ccncc2)c[nH]1 (single isomer, unassigned) [Example 33B] | < 1000 nM | 
26 | FC1(F)CC1(F)c1nc(Cc2ccncc2)c[nH]1 (stereo not shown) [Example 40, 4-((2-(1,2,2-Trifluorocyclopropyl)-1H-imidazol-4-yl)methyl)pyridine] | < 1000 nM | 
27 | OC1(c2nc(Cc3ccncc3)c[nH]2)CCC(F)(F)CC1 [Example 12] | 1000 to 10000 nM | 
28 | F[C@@]1(Cl)C[C@@H]1c1nc(Cc2ccncc2)c[nH]1 (single isomer, unassigned) [Example 39A] | < 1000 nM | 
29 | Fc1cnccc1Cc1c[nH]c(C2CC(F)(F)C2)n1 [Example 4, 4-((2-(3,3-Difluorocyclobutyl)-1H-imidazol-4-yl)methyl)-3-fluoropyridine] | < 1000 nM | 
30 | FC(F)(F)[C@H]1C[C@H](c2nc(Cc3ccncc3)c[nH]2)C1 (single isomer, unassigned) [Example 31B, (trans)-4-((2-(3-(Trifluoromethyl)cyclobutyl)-1H-imidazol-4-yl)methyl)pyridine] | 1000 to 10000 nM | 
31 | FC1(F)CC1c1nc(Cc2ccncc2)c[nH]1 (single isomer, unassigned) [Example 5A] | < 1000 nM | 
32 | FC(F)(F)O[C@H]1C[C@@H](c2nc(Cc3ccncc3)c[nH]2)C1 [Example 37A, (cis)-4-((2-(3-(Trifluoromethoxy)cyclobutyl)-1H-imidazole-4-yl)methyl)pyridine] | < 1000 nM | 
33 | FC(F)(F)Sc1ncc(Cc2ccncc2)[nH]1 [Example 28, 4-((2-((Trifluoromethyl)thio)-1H-imidazol-5-yl)methyl)pyridine] | < 1000 nM | 
34 | FC1(F)CCC(c2nc(Cc3ccncc3)c[nH]2)CC1 [Example 13, 4-((2-(4,4-Difluorocyclohexyl)-1H-imidazol-4-yl)methyl)pyridine] | 1000 to 10000 nM | 
35 | N#CC1(F)CC(c2nc(Cc3ccncc3)c[nH]2)C1 (stereo not shown) [Example 38A] |  | IC50 [1]: 1000 to 10000 nM
36 | C[C@@]1(c2nc(Cc3ccncc3)c[nH]2)CC1(F)F (single isomer, unassigned) [Example 10B] | < 1000 nM | 
37 | CC(c1ccncc1)c1c[nH]c(C(=O)C(F)(F)F)n1 (racemic) [Example 22, 2,2,2-Trifluoro-1-(4-(pyridine-4-yl)ethyl)-1H-imidazol-2-yl)ethan-1-one hydrochloride] | < 1000 nM | 
38 | FC1(F)C[C@H]1Cc1nc(Cc2ccncc2)c[nH]1 (single isomer, unassigned) [Example 21B] | < 1000 nM | 
39 | Fc1cnccc1Cc1coc(C2CC(F)(F)C2)n1 [Example 4A, 2-(3,3-Difluorocyclobutyl)-4-((3-fluoropyridin-4-yl)methyl)oxazole] | 10000 to 100000 nM | 
40 | Fc1cnccc1Cc1coc(C2CCC(F)(F)C2)n1 (stereo not shown) [Example 18B, 2-(3,3-Difluorocyclopentyl)-4-((3-fluoropyridin-4-yl)methyl)oxazole] | 10000 to 100000 nM | 
41 | FC1(F)CC(c2nc(Cc3ccncc3)c[nH]2)C1 [Example 15A, 4-((2-(3,3-Difluorocyclobutyl)-1H-imidazol-4-yl)methyl)pyridine] | < 1000 nM | 
42 | Fc1cnccc1Cc1c[nH]c(C2CCC(F)(F)CC2)n1 [Example 17A, 4-((2-(4,4-Difluorocyclohexyl)-1H-imidazol-4-yl)methyl)-3-fluoropyridine] | 1000 to 10000 nM | 
43 | FC(F)(F)O[C@H]1C[C@H](c2nc(Cc3ccncc3)c[nH]2)C1 [Example 37B, (trans)-4-((2-(3-(Trifluoromethoxy)cyclobutyl)-1H-imidazole-4-yl)methyl)pyridine] | 1000 to 10000 nM | 
44 | F[C@H]1C[C@H](c2nc(Cc3ccncc3)c[nH]2)C1 [Example 30, (trans)-4-((2-(3-Fluorocyclobutyl)-1H-imidazol-4-yl)methyl)pyridine] | 1000 to 10000 nM | 
45 | FC1(F)CNC(c2nc(Cc3ccncc3)c[nH]2)C1 (stereo not shown) [Example 32, 4-((2-(4,4-Difluoropyrrolidin-2-yl)-1H-imidazol-4-yl)methyl)pyridine] | 1000 to 10000 nM | 
46 | ClC1(Cl)CC(c2nc(Cc3ccncc3)co2)C1 [Example 19B, 2-(3,3-Dichlorocyclobutyl)-4-(pyridine-4-ylmethyl)oxazole] | 1000 to 10000 nM | 
